Source: patent US20230159532A1, “PARATHYROID HORMONE (PTH) RECEPTOR ANTAGONISTS AND USES THEREOF” (Crinetics Pharmaceuticals, Inc., priority 2021, published 2023)

What follows are molecules tested against T1, human PTHR1 receptor (Homo sapiens, UniProt Q03431) (assay: Competitive antagonist binding assay for hPTH-R1 (radioactive competition binding, SPA beads)). Conditions: human PTHR1 membranes, [125I]-[Nle8,18,Tyr34]-PTH(1-34) 0.2 nM, 90 minutes at room temperature; read-out: hPTHR1 Ki.
T1 construct: purchased Eurofins HTS030M
T1 sequence (Q03431 27-593): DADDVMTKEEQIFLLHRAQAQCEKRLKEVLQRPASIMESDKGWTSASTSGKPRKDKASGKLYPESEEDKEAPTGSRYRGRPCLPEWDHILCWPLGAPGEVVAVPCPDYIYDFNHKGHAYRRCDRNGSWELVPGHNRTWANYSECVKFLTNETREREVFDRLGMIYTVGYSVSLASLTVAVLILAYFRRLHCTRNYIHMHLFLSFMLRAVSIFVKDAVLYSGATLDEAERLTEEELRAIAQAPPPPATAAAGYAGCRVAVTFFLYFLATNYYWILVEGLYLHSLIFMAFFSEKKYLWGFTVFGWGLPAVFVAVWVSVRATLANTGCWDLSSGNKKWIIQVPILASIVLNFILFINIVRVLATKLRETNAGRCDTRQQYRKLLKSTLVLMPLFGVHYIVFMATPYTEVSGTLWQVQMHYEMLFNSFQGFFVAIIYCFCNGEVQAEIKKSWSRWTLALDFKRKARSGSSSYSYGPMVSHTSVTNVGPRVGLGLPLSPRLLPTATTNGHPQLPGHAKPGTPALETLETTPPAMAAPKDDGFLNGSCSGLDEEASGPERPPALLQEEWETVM
Method in brief: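 Displacement of 0.2 nM radioiodinated [Nle8,18,Tyr34]-PTH(1-34) from membrane-bound human PTHR1 measured by scintillation proximity after 90 min at room temperature. Compounds typically 0-10,000 nM final, pH 7.4 HEPES/Mg/Ca buffer with BSA and detergent. Ki calculated from competition data.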

Molecule	Ki [nM]
CCN1C(=O)N(c2c(F)cc(NCCNCCO)cc2F)c2nc(C#N)ccc2-c2cc(F)cnc21 [3-14, 8-[2,6-difluoro-4-({2-[(2-hydroxyethyl)amino]ethyl}amino)phenyl]-10-ethyl-14-fluoro-9-oxo-6,8,10,12-tetraazatricyclo[9.4.0.0^2,7]pentadeca-1(11),2(7),3,5,12,14-hexaene-5-carbonitrile]	< 100
CCN1C(=O)N(c2c(F)cc(NCCNCCO)cc2F)c2cc(Cl)ccc2-c2nc(C#N)ccc21 [3-15, 13-chloro-10-[2,6-difluoro-4-({2-[(2-hydroxyethyl)amino]ethyl}amino)phenyl]-8-ethyl-9-oxo-3,8,10-triazatricyclo[9.4.0.0^2,7]pentadeca-1(11),2(7),3,5,12,14-hexaene-4-carbonitrile]	1000 to 10000
CCN1C(=O)N(c2c(F)cc(NCCNC)cc2F)c2cc(Cl)ccc2-c2nc(C#N)ccc21 [3-16, 13-chloro-10-(2,6-difluoro-4-{[2-(methylamino)ethyl]amino}phenyl)-8-ethyl-9-oxo-3,8,10-triazatricyclo[9.4.0.0^2,7]pentadeca-1(11),2(7),3,5,12,14-hexaene-4-carbonitrile]	1000 to 10000
CCN1C(=O)N(c2c(F)cc(NCCNC3CCOCC3)cc2F)c2cc(Cl)ccc2-c2nc(C#N)ccc21 [3-17, 13-chloro-10-[2,6-difluoro-4-({2-[(oxan-4-yl)amino]ethyl}amino)phenyl]-8-ethyl-9-oxo-3,8,10-triazatricyclo[9.4.0.0^2,7]pentadeca-1(11),2(7),3,5,12,14-hexaene-4-carbonitrile]	1000 to 10000
CCN1C(=O)N(c2c(F)cc(NCCNCCO)cc2F)c2cc(C#N)ccc2-c2cc(F)ccc21 [3-18, 8-[2,6-difluoro-4-({2-[(2-hydroxyethyl)amino]ethyl}amino)phenyl]-10-ethyl-14-fluoro-9-oxo-8,10-diazatricyclo[9.4.0.0^2,7]pentadeca-1(11),2(7),3,5,12,14-hexaene-5-carbonitrile]	< 100
CCN1C(=O)N(c2c(F)cc(NCCNC)cc2F)c2cc(C#N)ccc2-c2cc(F)ccc21 [3-19, 8-(2,6-difluoro-4-{[2-(methylamino)ethyl]amino}phenyl)-10-ethyl-14-fluoro-9-oxo-8,10-diazatricyclo[9.4.0.0^2,7]pentadeca-1(11),2(7),3,5,12,14-hexaene-5-carbonitrile]	< 100
CCN1C(=O)N(c2c(F)cc(NCCNCCO)cc2F)c2cc(C#N)c(C)cc2-c2cc(F)cnc21 [3-20, 10-[2,6-difluoro-4-({2-[(2-hydroxyethyl)amino]ethyl}amino)phenyl]-8-ethyl-4-fluoro-14-methyl-9-oxo-6,8,10-triazatricyclo[9.4.0.0^2,7]pentadeca-1(11),2(7),3,5,12,14-hexaene-13-carbonitrile]	< 100
CCN1C(=O)N(c2c(F)cc(NCCNCCO)cc2F)c2cc(Cl)cnc2-c2cc(Cl)cnc21 [3-21, 5,14-dichloro-8-[2,6-difluoro-4-({2-[(2-hydroxyethyl)amino]ethyl}amino)phenyl]-10-ethyl-3,8,10,12-tetraazatricyclo[9.4.0.0^2,7]pentadeca-1(11),2(7),3,5,12,14-hexaen-9-one]	< 100
CCN1C(=O)N(c2c(F)cc(NCCNCCO)cc2F)c2cc(Cl)ccc2-c2cc(C#N)ncc21 [3-22, 13-chloro-10-[2,6-difluoro-4-({2-[(2-hydroxyethyl)amino]ethyl}amino)phenyl]-8-ethyl-9-oxo-5,8,10-triazatricyclo[9.4.0.0^2,7]pentadeca-1(11),2(7),3,5,12,14-hexaene-4-carbonitrile]	< 100
CCN1C(=O)N(c2c(F)cc(NCCNCCO)cc2F)c2cc(C#N)c(OC)cc2-c2cc(F)cnc21 [3-23, 10-[2,6-difluoro-4-({2-[(2-hydroxyethyl)amino]ethyl}amino)phenyl]-8-ethyl-4-fluoro-14-methoxy-9-oxo-6,8,10-triazatricyclo[9.4.0.0^2,7]pentadeca-1(11),2(7),3,5,12,14-hexaene-13-carbonitrile]	< 100
CCN1C(=O)N(c2c(F)cc(NCCNC3CCOCC3)cc2F)c2cc(Cl)ccc2-c2cc(C#N)ncc21 [3-24, 13-chloro-10-[2,6-difluoro-4-({2-[(oxan-4-yl)amino]ethyl}amino)phenyl]-8-ethyl-9-oxo-5,8,10-triazatricyclo[9.4.0.0^2,7]pentadeca-1(11),2(7),3,5,12,14-hexaene-4-carbonitrile]	< 100
CCN1C(=O)N(c2c(F)cc(NCCNCCO)cc2F)c2cc(Cl)cnc2-c2cc(F)cnc21 [3-25, 5-chloro-8-[2,6-difluoro-4-({2-[(2-hydroxyethyl)amino]ethyl}amino)phenyl]-10-ethyl-14-fluoro-3,8,10,12-tetraazatricyclo[9.4.0.0^2,7]pentadeca-1(11),2(7),3,5,12,14-hexaen-9-one]	< 100
[2-({2-[(4-{13-cyano-8-ethyl-4-fluoro-9-oxo-6,8,10-triazatricyclo[9.4.0.0^2,7]pentadeca-1(11),2(7),3,5,12,14-hexaen-10-yl}-3,5-difluorophenyl)amino]ethyl}amino)ethyl]urea [1-169]	< 100
